Read-outs that look alike come from different tables or passages of the source.
How the values were obtained:
[1] = test system: HepG2; assay: In vitro cytotoxicity, IC50 by MTT method, HepG2; format: cell-based, human; details: Homo sapiens
How it was run: (§1)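 MTT viability, 48 h exposure: cells 10^5/ml in RPMI1640 + 10% FBS, 37 °C/5% CO2; MTT 4 h, DMSO solubilisation, A490.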

[2] = test system: PLA-801; assay: In vitro cytotoxicity, IC50 by MTT method, PLA-801; format: cell-based
How it was run: as §1

[3] = test system: Bel-7402; assay: In vitro cytotoxicity, IC50 by MTT method, Bel-7402; format: cell-based; details: Homo sapiens, Bel-7402
How it was run: as §1

[4] = test system: BGC-823; assay: In vitro cytotoxicity, IC50 by MTT method, BGC-823; format: cell-based; details: Homo sapiens, BGC-823
How it was run: as §1

[5] = test system: Hela; assay: In vitro cytotoxicity, IC50 by MTT method, Hela; format: cell-based; details: Homo sapiens
How it was run: as §1

[6] = test system: Lovo; assay: In vitro cytotoxicity, IC50 by MTT method, Lovo; format: cell-based; details: Homo sapiens
How it was run: as §1

[7] = test system: NIH3T3; assay: In vitro cytotoxicity, IC50 by MTT method, NIH3T3; format: cell-based; details: Mus musculus
How it was run: as §1

[8] = test system: Kunming mice; details: for Death rate: single i.p.
Procedure: (§2) Five grades of dosages for each sample according to the results of the preliminary test, each dosage being 0.8 larger than the previous one
(§3) During the experiment, each sample was added a small amount of Tween-80 to facilitate dissolution after the sample was weighed, and then 0.5% CMC-Na solution was gradually added to achieve the desired concentration. The experimental volume was 0.5 ml/20 g mouse.
(§4) Single injection via intraperitoneal (i.p.) to different groups mice.
(§5) Kunming mice were divided into different groups randomly according to their sex. The medicament was intraperitoneally administered to each group of mice according to the dosage setting. After the administration of the medicaments, mice were observed continuously for the first 2 h for any gross behavioral changes and deaths. Dead animals were dissected and examined for any possible organ damage. […] Conditions of animals died within two week were recorded. After two weeks, all survived animals were sacrificed and checked macroscopically for possible damage to the heart, liver, kidneys and so on. Viscera that had substantive pathological changes were pathologically examined.

[9] = test system: Lewis lung cancer; details: for Inhibition rate (%) Lewis cancer: comparison table 43, in vivo; for Inhibition rate (%) Lewis cancer / Body weight of the animals, end, First time / Body weight of the animals, end, Second time / Body weight of the animals, beginning, First time / Inhibition rate, First time / Weight of the tumor X ± SD, First time / Body weight of the animals, beginning, Second time / Inhibition rate, Second time / Weight of the tumor X ± SD, Second time: Lewis lung cancer; for Body weight of the animals, end, First time / Body weight of the animals, end, Second time: ip × 10qd;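 as to all read-outs here: mice implanted subcutaneously in the axilla with Lewis lung tumor cells, treated starting the following day, killed roughly three weeks after implantation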
[10] = test system: S180 sarcoma; details: S180 sarcoma; for Inhibition rate (%) S180 sarcomata: comparison table 43, in vivo; for Body weight of the animals, beginning, First time / Body weight of the animals, end, First time / Inhibition rate, First time / Weight of the tumor X ± SD, First time / Body weight of the animals, beginning, Second time / Body weight of the animals, end, Second time / Inhibition rate, Second time: ip × 10qd
[11] = in vivo; details: both, mouse, ip
Procedure: as §2, §3, §4, §5

[12] = 50% male 50% female mice, 240 mg/kg
[13] = 50% male 50% female mice, 300 mg/kg
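For Death rate in this document: acute toxicity in Kunming mice grouped by sex, one intraperitoneal dose at five graded levels in Tween-80 plus 0.5% CMC-Na, deaths monitored over two weeks.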
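For LD50 in this document: acute toxicity in Kunming mice grouped by sex, one intraperitoneal dose at five graded levels in Tween-80 plus 0.5% CMC-Na, deaths monitored over two weeks.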
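For MTD in this document: acute toxicity in Kunming mice grouped by sex, one intraperitoneal dose at five graded levels in Tween-80 plus 0.5% CMC-Na, deaths monitored over two weeks.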
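For Sex in this document: acute toxicity in Kunming mice grouped by sex, one intraperitoneal dose at five graded levels in Tween-80 plus 0.5% CMC-Na, deaths monitored over two weeks.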

## COC(=O)c1cc2c([nH]c3ccccc32)c(-c2ccc(O)cc2)n1 [Compound 16, methyl 1-(4-hydroxyphenyl)-β-carboline-3-carboxylate]
[1]; HepG2, MTT, read-out: IC50
  IC50: > 5000 µM
[2]; PLA-801, MTT, read-out: IC50
  IC50: 1020 µM
[3]; BeI7402, MTT, read-out: IC50
  IC50: 1080 µM
[4]; BGC823, MTT, read-out: IC50
  IC50: 970 µM
[5]; Hela, MTT, read-out: IC50
  IC50: 150 µM
[6]; Lovo, MTT, read-out: IC50
  IC50: 620 µM
[7]; NIH3T3, MTT, read-out: IC50
  IC50: 2180 µM
[8]; [12]
  Death rate: 0
[8]; [13]
  Death rate: 30
[8]; both, Kunming, mouse, in vivo, ip, 2 weeks
  Sex: 240
[8]; female mice, 240 mg/kg
  Death rate: 0
[8]; female mice, 300 mg/kg
  Death rate: 40
[8]; male mice, 240 mg/kg
  Death rate: 0
[8]; male mice, 300 mg/kg
  Death rate: 20
[9]
  Inhibition rate (%) Lewis cancer: 37.86%
[10]
  Inhibition rate (%) S180 sarcomata: 32.96%
[11]; Kunming
  MTD at 2 weeks: 240 mg/kg

## CCOC(=O)c1cc2c([nH]c3ccccc32)c(C)n1 [Compound 11, ethyl 1-methyl-β-carboline-3-carboxylate]
[1]; HepG2, MTT, read-out: IC50
  IC50: 90 µM
[2]; PLA-801, MTT, read-out: IC50
  IC50: 260 µM
[3]; BeI7402, MTT, read-out: IC50
  IC50: 230 µM
[4]; BGC823, MTT, read-out: IC50
  IC50: 110 µM
[5]; Hela, MTT, read-out: IC50
  IC50: 100 µM
[6]; Lovo, MTT, read-out: IC50
  IC50: 80 µM
[7]; NIH3T3, MTT, read-out: IC50
  IC50: 100 µM
[8]; [12]
  Death rate: 90
[8]; [13]
  Death rate: 100
[8]; female mice, 240 mg/kg
  Death rate: 100
[8]; female mice, 300 mg/kg
  Death rate: 100
[8]; male mice, 240 mg/kg
  Death rate: 80
[8]; male mice, 300 mg/kg
  Death rate: 100
[8]; mouse, in vivo, ip
  LD50: 159 to 211 mg/kg
[9]; Dosage 25 (mg/ml)
  Body weight of the animals, end, First time: 23.4 g
  Body weight of the animals, end, Second time: 24.5 g
[9]; Dosage 25, ip × 10qd
  Body weight of the animals, beginning, First time: 18.7 g
  Inhibition rate, First time: 29.08%
  Weight of the tumor X ± SD, First time: 1.78 ± 0.16 g
  Body weight of the animals, beginning, Second time: 19.9 g
  Inhibition rate, Second time: 33.05%
  Weight of the tumor X ± SD, Second time: 1.58 ± 0.09 g
[9]; Dosage 50 (mg/ml)
  Body weight of the animals, end, First time: 23.0 g
  Body weight of the animals, end, Second time: 23.8 g
[9]; Dosage 50, ip × 10qd
  Body weight of the animals, beginning, First time: 18.3 g
  Inhibition rate, First time: 44.22%
  Weight of the tumor X ± SD, First time: 1.40 ± 0.16 g
  Body weight of the animals, beginning, Second time: 19.8 g
  Inhibition rate, Second time: 42.8%
  Weight of the tumor X ± SD, Second time: 1.35 ± 0.14 g
[9]
  Inhibition rate (%) Lewis cancer: 44.22%
[10]; Dosage 25 (mg/ml)
  Body weight of the animals, beginning, First time: 19.5 g
  Body weight of the animals, end, First time: 26.3 g
  Inhibition rate, First time: 34.74%
  Weight of the tumor X ± SD, First time: 1.86 ± 0.18 g
  Body weight of the animals, beginning, Second time: 20.4 g
  Body weight of the animals, end, Second time: 24.2 g
  Inhibition rate, Second time: 31.93%
[10]; Dosage 25, ip × 10qd
  Weight of the tumor X ± SD, Second time: 1.94 ± 0.16 g
[10]; Dosage 50 (mg/ml)
  Body weight of the animals, beginning, First time: 19.5 g
  Body weight of the animals, end, First time: 25.9 g
  Inhibition rate, First time: 44.21%
  Weight of the tumor X ± SD, First time: 1.59 ± 0.16 g
  Body weight of the animals, beginning, Second time: 20.6 g
  Body weight of the animals, end, Second time: 23.9 g
  Inhibition rate, Second time: 43.16%
[10]; Dosage 50, ip × 10qd
  Weight of the tumor X ± SD, Second time: 1.62 ± 0.38 g
[10]
  Inhibition rate (%) S180 sarcomata: 44.21%
[11]; Kunming
  LD50 at 2 weeks: 183 mg/kg

## CCOC(=O)Nc1cc2c3ccccc3n(Cc3ccccc3)c2cn1 [Compound 55, 3-[(ethoxycarbonyl)amino]-9-benzyl-β-carboline]
[1]; HepG2 cell strain, read-out: IC50 HepG2
  IC50: > 3000 µM
[2]; PLA-801 cell strain, read-out: IC50 PLA-801
  IC50: 520 µM
[3]; Bel7402 cell strain, read-out: IC50 Bel7402
  IC50: 2440 µM
[4]; BGC823 cell strain, read-out: IC50 BGC823
  IC50: > 3000 µM
[5]; Hela cell strain, read-out: IC50 Hela
  IC50: > 3000 µM
[6]; Lovo cell strain, read-out: IC50 Lovo
  IC50: 2130 µM
[7]; NIH3T3 cell strain, read-out: IC50 NIH3T3
  IC50: 1790 µM
[8]; [12]
  Death rate: 0
[8]; [13]
  Death rate: 50
[8]; female mice, 240 mg/kg
  Death rate: 0
[8]; female mice, 300 mg/kg
  Death rate: 60
[8]; male mice, 240 mg/kg
  Death rate: 0
[8]; male mice, 300 mg/kg
  Death rate: 40
[9]; Lewis lung cancer in mice, among 22 compounds tested
  Anti-tumor activity compared with harmine (compound 1): a little worse than or equivalent to that of harmines
[9]; Dosage 50 (mg/ml)
  Body weight of the animals, end, First time: 23.8 g
  Body weight of the animals, end, Second time: 24.5 g
[9]; Dosage 50, ip × 10qd
  Body weight of the animals, beginning, First time: 18.7 g
  Inhibition rate, First time: 21.91%
  Weight of the tumor X ± SD, First time: 1.96 ± 0.12 g
  Body weight of the animals, beginning, Second time: 19.6 g
  Inhibition rate, Second time: 24.58%
  Weight of the tumor X ± SD, Second time: 1.78 ± 0.19 g
[9]; Dosage 100 (mg/ml)
  Body weight of the animals, end, First time: 23.5 g
  Body weight of the animals, end, Second time: 23.9 g
[9]; Dosage 100, ip × 10qd
  Body weight of the animals, beginning, First time: 19.1 g
  Inhibition rate, First time: 29.88%
  Weight of the tumor X ± SD, First time: 1.76 ± 0.10 g
  Body weight of the animals, beginning, Second time: 19.7 g
  Inhibition rate, Second time: 30.93%
  Weight of the tumor X ± SD, Second time: 1.63 ± 0.18 g
[9]
  Inhibition rate (%) Lewis cancer: 30.93%
[10]; Dosage 50 (mg/ml)
  Body weight of the animals, beginning, First time: 19.8 g
  Body weight of the animals, end, First time: 27.0 g
  Inhibition rate, First time: 23.51%
  Weight of the tumor X ± SD, First time: 2.18 ± 0.23 g
  Body weight of the animals, beginning, Second time: 20.9 g
  Body weight of the animals, end, Second time: 24.8 g
  Inhibition rate, Second time: 20.00%
[10]; Dosage 50, ip × 10qd
  Weight of the tumor X ± SD, Second time: 2.28 ± 0.18 g
[10]; Dosage 100 (mg/ml)
  Body weight of the animals, beginning, First time: 19.4 g
  Body weight of the animals, end, First time: 26.7 g
  Inhibition rate, First time: 29.12%
  Weight of the tumor X ± SD, First time: 2.02 ± 0.22 g
  Body weight of the animals, beginning, Second time: 20.3 g
  Body weight of the animals, end, Second time: 24.9 g
  Inhibition rate, Second time: 28.07%
[10]; Dosage 100, ip × 10qd
  Weight of the tumor X ± SD, Second time: 2.05 ± 0.17 g
[10]
  Inhibition rate (%) S180 sarcomata: 29.12%
[11]
  MTD at 2 weeks: 240 mg/kg

Source: US20090227619A1, “Harmine derivatives, intermediates used in their preparations, preparation processes and use therefo” (priority 2003, published 2009)
